The source of these data is ChEMBL document CHEMBL4732190, “Identification of Potent and Long-Acting Single-Chain Peptide Mimetics of Human Relaxin-2 for Cardiovascular Diseases” (J Med Chem, 2021).

The target in one assay is T1, Relaxin receptor 1 (Homo sapiens, UniProt Q9HBX9).
T1 sequence (Q9HBX9 whole entry): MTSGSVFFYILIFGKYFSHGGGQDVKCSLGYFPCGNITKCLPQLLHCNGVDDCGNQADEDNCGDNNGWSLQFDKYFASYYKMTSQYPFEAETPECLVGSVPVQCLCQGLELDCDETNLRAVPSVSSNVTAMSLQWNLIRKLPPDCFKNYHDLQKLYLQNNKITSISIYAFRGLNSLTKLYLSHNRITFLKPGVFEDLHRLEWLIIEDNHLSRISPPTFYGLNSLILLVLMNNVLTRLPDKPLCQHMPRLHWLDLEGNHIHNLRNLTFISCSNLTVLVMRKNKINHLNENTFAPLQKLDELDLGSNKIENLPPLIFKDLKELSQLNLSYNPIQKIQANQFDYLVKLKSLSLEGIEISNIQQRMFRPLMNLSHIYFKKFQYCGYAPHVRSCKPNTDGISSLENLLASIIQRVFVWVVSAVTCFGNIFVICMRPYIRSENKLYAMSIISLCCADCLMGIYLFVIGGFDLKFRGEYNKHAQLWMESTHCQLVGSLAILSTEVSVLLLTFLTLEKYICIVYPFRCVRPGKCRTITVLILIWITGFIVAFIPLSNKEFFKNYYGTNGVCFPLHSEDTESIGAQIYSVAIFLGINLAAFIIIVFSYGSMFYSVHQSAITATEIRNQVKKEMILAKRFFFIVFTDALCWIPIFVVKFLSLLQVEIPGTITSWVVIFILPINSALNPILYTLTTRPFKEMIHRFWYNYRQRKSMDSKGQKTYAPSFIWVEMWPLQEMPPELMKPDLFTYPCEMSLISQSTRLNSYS
Kind of assay: Agonist activity at RXFP1 endogenously expressed in human OVCAR-5 cells assessed as increase in IBMX-induced cAMP accumulation pretreated with IBMX for 40 mins followed by compound addition and measured after 30 mins by HTRF assay. It is filed as functional, cell-based. Background: cAMP levels reflect the balance of adenylyl cyclase and phosphodiesterase activity.

Assay [1] concerns the target T2, Relaxin receptor 1 (Homo sapiens) (UniProt Q9HBX9).
T2 sequence (whole entry): T1 sequence (Q9HBX9 whole entry)
The assay can be described thus: Agonist activity at RXFP1 endogenously expressed in human OVCAR-5 cells assessed as increase in IBMX-induced cAMP accumulation pretreated with IBMX for 40 mins followed by compound addition and measured after 30 mins by HTRF assay relative to relaxin. Format: functional, cell-based. As to conditions: filed as agonist.

*1 amine or outer side, *2 acyl side, *3 side chain or, on linkers, in order; H or OH if unused. Where a SMILES comes first, the peptide text is derived from it. [ ]: non-standard residue; d: D form. β2hAla(2S) = C[C@@H](CN[*:1])C(=O)[*:2]

Regarding `CC[C@H](C)[C@H](NC(=O)[C@H](CCC(N)=O)NC(=O)[C@H](C)NC(=O)[C@H](CCCNC(=N)N)NC(=O)[C@@H](NC(=O)[C@H](CCCCN)NC(=O)[C@H](CCC(=O)O)NC(=O)[C@H](CCCNC(=N)N)NC(=O)CNC(=O)[C@H](CCC(=O)O)NC(=O)[C@H](CC(C)C)NC(=O)[C@H](CCCCN)NC(=O)[C@@H](NC(=O)[C@@H](NC(=O)[C@H](CCC(=O)O)NC(=O)[C@H](CCC(=O)O)NC(C)=O)C(C)C)[C@@H](C)CC)C(C)C)C(=O)NC[C@H](C)C(=O)N[C@H](C(=O)N[C@@H](CO)C(=O)NCC(=O)N[C@@H](CCSC)C(=O)N[C@@H](CO)C(=O)N[C@H](C(=O)N[C@@H](Cc1c[nH]c2ccccc12)C(=O)N[C@@H](CO)C(=O)N[C@@H](CCCCN)C(=O)N[C@@H](CCCNC(=N)N)C(=O)N[C@@H](CCCCN)C(=O)N[C@@H](CCCCN)C(N)=O)[C@@H](C)O)[C@@H](C)CC` (HELM PEPTIDE1{[ac].E.E.V.I.K.L.E.G.R.E.K.V.R.A.Q.I.[C[C@@H](CN[*:1])C(=O)[*:2]].I.S.G.M.S.T.W.S.K.R.K.K.[am]}$$$$V2.0), the EC50 (commonly the concentration needed to bring the measured effect to its halfway point) on Relaxin receptor 1 turned out to be 124 nM. For the same compound, the Emax (commonly the size of the effect at its maximum, as opposed to the concentration needed) in assay [1] stood at 98%.

In the case of `CC[C@H](C)[C@H](NC(=O)[C@H](CCC(N)=O)NC(=O)[C@H](C)NC(=O)[C@H](CCCNC(=N)N)NC(=O)[C@@H](NC(=O)[C@H](CC(C)C)NC(=O)[C@H](CCC(=O)O)NC(=O)[C@H](CCCNC(=N)N)NC(=O)CNC(=O)[C@H](CO)NC(=O)[C@H](CC(C)C)NC(=O)[C@H](CCCCN)NC(=O)[C@@H](NC(=O)[C@@H](NC(=O)[C@H](CCC(=O)O)NC(=O)[C@H](CCC(=O)O)NC(C)=O)C(C)C)[C@@H](C)CC)C(C)C)C(=O)NC[C@H](C)C(=O)N[C@H](C(=O)N[C@@H](CCC(=O)O)C(=O)NCC(=O)N[C@@H](CCSC)C(=O)N[C@@H](CO)C(=O)N[C@@H](CCCCN)C(=O)N[C@@H](Cc1c[nH]c2ccccc12)C(=O)N[C@@H](CO)C(=O)N[C@@H](CCCCN)C(=O)N[C@@H](CCCNC(=N)N)C(=O)N[C@@H](CCCCN)C(=O)N[C@@H](CCCCN)C(N)=O)[C@@H](C)CC` (HELM PEPTIDE1{[ac].E.E.V.I.K.L.S.G.R.E.L.V.R.A.Q.I.[C[C@@H](CN[*:1])C(=O)[*:2]].I.E.G.M.S.K.W.S.K.R.K.K.[am]}$$$$V2.0), at Relaxin receptor 1, the EC50 amounted to 230 nM. Besides, in assay [1], the Emax was determined as 101%.

On to `CC[C@H](C)[C@H](NC(=O)[C@H](CCC(N)=O)NC(=O)[C@H](C)NC(=O)[C@H](CCCNC(=N)N)NC(=O)[C@@H](NC(=O)[C@H](CCCCN)NC(=O)[C@H](CCC(=O)O)NC(=O)[C@H](CCCNC(=N)N)NC(=O)CNC(=O)[C@H](CCC(=O)O)NC(=O)[C@H](CC(C)C)NC(C)=O)C(C)C)C(=O)NC[C@H](C)C(=O)NC[C@H](C)C(=O)N[C@@H](CCC(=O)O)C(=O)NCC(=O)N[C@@H](CCSC)C(=O)N[C@@H](CO)C(=O)N[C@H](C(=O)N[C@@H](Cc1c[nH]c2ccccc12)C(=O)N[C@@H](CO)C(=O)N[C@@H](CCCCN)C(=O)N[C@@H](CCCNC(=N)N)C(=O)N[C@@H](CCCCN)C(=O)N[C@@H](CCCCN)C(N)=O)[C@@H](C)O` (HELM PEPTIDE1{[ac].L.E.G.R.E.K.V.R.A.Q.I.[C[C@@H](CN[*:1])C(=O)[*:2]].[C[C@@H](CN[*:1])C(=O)[*:2]].E.G.M.S.T.W.S.K.R.K.K.[am]}$$$$V2.0), for which the concentration for a half-maximal effect (EC50) on Relaxin receptor 1 was found to be 23 nM. The Emax in assay [1] was 99%.

Turning to Ac-VIKLSGRELVRAQIAISGMSTWSKRKK-NH2, on Relaxin receptor 1, the EC50 is 522 nM. In addition, the Emax in assay [1] worked out at 89%.

With `CC[C@H](C)[C@H](NC(=O)C(C)CNC(=O)[C@H](NC(=O)[C@H](CCC(N)=O)NC(=O)[C@H](C)NC(=O)[C@H](CCCNC(=N)N)NC(=O)[C@@H](NC(=O)[C@H](CCCCN)NC(=O)[C@H](CCC(=O)O)NC(=O)[C@H](CCCNC(=N)N)NC(=O)CNC(=O)[C@H](CCC(=O)O)NC(=O)[C@H](CC(C)C)NC(C)=O)C(C)C)[C@@H](C)CC)C(=O)N[C@@H](CCC(=O)O)C(=O)NCC(=O)N[C@@H](CCSC)C(=O)N[C@@H](CO)C(=O)N[C@@H](CCCCN)C(=O)N[C@@H](Cc1c[nH]c2ccccc12)C(=O)N[C@@H](CO)C(=O)N[C@@H](CCCCN)C(=O)N[C@@H](CCCNC(=N)N)C(=O)N[C@@H](CCCCN)C(=O)N[C@@H](CCCCN)C(N)=O` (stereo partly drawn), the EC50 at Relaxin receptor 1 amounted to 43 nM. Further, in assay [1], the Emax was determined as 91%.

Take `CC[C@H](C)[C@H](NC(=O)[C@H](CCC(N)=O)NC(=O)[C@H](C)NC(=O)[C@H](CCCNC(=N)N)NC(=O)[C@@H](NC(=O)[C@H](CC(C)C)NC(=O)[C@H](CCC(=O)O)NC(=O)[C@H](CCCNC(=N)N)NC(=O)CNC(=O)[C@H](CO)NC(=O)[C@H](CC(C)C)NC(=O)[C@H](CCCCN)NC(=O)[C@@H](NC(=O)[C@@H](NC(C)=O)C(C)C)[C@@H](C)CC)C(C)C)C(=O)NC[C@H](C)C(=O)N[C@H](C(=O)N[C@@H](CCC(=O)O)C(=O)NCC(=O)N[C@@H](CCSC)C(=O)N[C@@H](CO)C(=O)N[C@@H](CCCCN)C(=O)N[C@@H](Cc1c[nH]c2ccccc12)C(=O)N[C@@H](CO)C(=O)N[C@@H](CCCCN)C(=O)N[C@@H](CCCNC(=N)N)C(=O)N[C@@H](CCCCN)C(=O)N[C@@H](CCCCN)C(N)=O)[C@@H](C)CC` (HELM PEPTIDE1{[ac].V.I.K.L.S.G.R.E.L.V.R.A.Q.I.[C[C@@H](CN[*:1])C(=O)[*:2]].I.E.G.M.S.K.W.S.K.R.K.K.[am]}$$$$V2.0): the EC50 on Relaxin receptor 1 stood at 46 nM. In addition, in assay [1], the Emax turned out to be 98%.

With `CC[C@H](C)[C@H](NC(=O)[C@H](CCC(N)=O)NC(=O)[C@H](C)NC(=O)[C@H](CCCNC(=N)N)NC(=O)[C@@H](NC(=O)[C@H](CC(C)C)NC(=O)[C@H](CCC(=O)O)NC(=O)[C@H](CCCNC(=N)N)NC(=O)CNC(=O)[C@H](CO)NC(=O)[C@H](CC(C)C)NC(=O)[C@H](CCCCN)NC(=O)[C@@H](NC(=O)[C@@H](NC(=O)[C@H](CCC(=O)O)NC(=O)[C@H](CCC(=O)O)NC(C)=O)C(C)C)[C@@H](C)CC)C(C)C)C(=O)NC[C@H](C)C(=O)NC[C@H](C)C(=O)N[C@@H](CO)C(=O)NCC(=O)N[C@@H](CCSC)C(=O)N[C@@H](CO)C(=O)N[C@H](C(=O)N[C@@H](Cc1c[nH]c2ccccc12)C(=O)N[C@@H](CO)C(=O)N[C@@H](CCCCN)C(=O)N[C@@H](CCCNC(=N)N)C(=O)N[C@@H](CCCCN)C(=O)N[C@@H](CCCCN)C(N)=O)[C@@H](C)O` (HELM PEPTIDE1{[ac].E.E.V.I.K.L.S.G.R.E.L.V.R.A.Q.I.[C[C@@H](CN[*:1])C(=O)[*:2]].[C[C@@H](CN[*:1])C(=O)[*:2]].S.G.M.S.T.W.S.K.R.K.K.[am]}$$$$V2.0), at Relaxin receptor 1, the EC50 was 37 nM. In assay [1], the Emax is 94%.

Consider `CC[C@H](C)[C@H](NC(=O)[C@H](CCC(N)=O)NC(=O)[C@H](C)NC(=O)[C@H](CCCNC(=N)N)NC(=O)[C@@H](NC(=O)[C@H](CCCCN)NC(=O)[C@H](CCC(=O)O)NC(=O)[C@H](CCCNC(=N)N)NC(=O)CNC(=O)[C@H](CCC(=O)O)NC(=O)[C@H](CC(C)C)NC(=O)[C@H](CCCCN)NC(=O)[C@@H](NC(=O)[C@@H](NC(C)=O)C(C)C)[C@@H](C)CC)C(C)C)C(=O)NC[C@H](C)C(=O)NC[C@H](C)C(=O)N[C@@H](CCC(=O)O)C(=O)NCC(=O)N[C@@H](CCSC)C(=O)N[C@@H](CO)C(=O)N[C@@H](CCCCN)C(=O)N[C@@H](Cc1c[nH]c2ccccc12)C(=O)N[C@@H](CO)C(=O)NC[C@H](C)C(=O)N[C@@H](CCCNC(=N)N)C(=O)N[C@@H](CCCCN)C(=O)N[C@@H](CCCCN)C(N)=O` (Ac-VIKLEGREKVRAQI[β2hAla(2S)][β2hAla(2S)]EGMSKWS[β2hAla(2S)]RKK-NH2), for which, on Relaxin receptor 1, the EC50 was found to be 19.5 nM. Further, in assay [1], the Emax came to 99%.

Regarding `CC[C@H](C)[C@H](NC(=O)[C@H](CCC(N)=O)NC(=O)[C@H](C)NC(=O)[C@H](CCCNC(=N)N)NC(=O)[C@@H](NC(=O)[C@H](CC(C)C)NC(=O)[C@H](CCC(=O)O)NC(=O)[C@H](CCCNC(=N)N)NC(=O)CNC(=O)[C@H](CO)NC(=O)[C@H](CC(C)C)NC(=O)[C@H](CCCCN)NC(=O)[C@@H](NC(=O)[C@@H](NC(C)=O)C(C)C)[C@@H](C)CC)C(C)C)C(=O)N[C@@H](C)C(=O)NC[C@H](C)C(=O)N[C@@H](CO)C(=O)NCC(=O)N[C@@H](CCSC)C(=O)N[C@@H](CO)C(=O)N[C@H](C(=O)N[C@@H](Cc1c[nH]c2ccccc12)C(=O)N[C@@H](CO)C(=O)N[C@@H](CCCCN)C(=O)N[C@@H](CCCNC(=N)N)C(=O)N[C@@H](CCCCN)C(=O)N[C@@H](CCCCN)C(N)=O)[C@@H](C)O` (HELM PEPTIDE1{[ac].V.I.K.L.S.G.R.E.L.V.R.A.Q.I.A.[C[C@@H](CN[*:1])C(=O)[*:2]].S.G.M.S.T.W.S.K.R.K.K.[am]}$$$$V2.0), the EC50 on Relaxin receptor 1 turned out to be 393 nM. Further, the Emax in assay [1] stood at 102%.
